# Test: log P by HPLC
# Type: physicochemical
# Conditions: HPLC, gradient method, acetonitrile/0.1% aqueous phosphoric acid; EEC directive 79/831 Annex V. A8
row,logP,Compound
1,2.64,COCC(C)Nc1c(-c2c(F)cc(F)cc2F)c(Cl)nc2nc(C)nn12 (centres unmarked) [compound 116]
2,3.52,Cc1nc2nc(Cl)c(-c3c(F)cc(F)cc3F)c(N3C(C)C=CC3C)n2n1 (centres unmarked) [compound 117]
3,3.11,COC(=O)C(Nc1c(-c2c(F)cc(F)cc2F)c(Cl)nc2nc(C)nn12)C(C)C (centres unmarked) [compound 118]
4,3.47,COC(=O)C(COC(C)(C)C)Nc1c(-c2c(F)cc(F)cc2F)c(Cl)nc2nc(C)nn12 (centres unmarked) [compound 120]
5,1.93,Cc1nc2nc(Cl)c(-c3c(F)cc(F)cc3F)c(NC(C)CO)n2n1 (centres unmarked) [compound 122]
6,2.74,COC(OC)C(C)Nc1c(-c2c(F)cc(F)cc2F)c(Cl)nc2nc(C)nn12 (centres unmarked) [compound 123]
7,2.45,COC(=O)C(C)Nc1c(-c2c(F)cc(F)cc2F)c(Cl)nc2nc(C)nn12 (centres unmarked) [compound 124]
8,2.13,COC(=O)CNc1c(-c2c(F)cc(F)cc2F)c(Cl)nc2nc(C)nn12 [compound 125]
9,3.44,Cc1nc2nc(Cl)c(-c3c(F)cc(F)cc3F)c(NC(C)C(=O)OC(C)(C)C)n2n1 (centres unmarked) [compound 126]
10,3.47,CCc1nc2nc(Cl)c(-c3c(F)cc(F)cc3F)c(N(N)CC(C)C)n2n1 [compound 127]
11,2.84,CCN(CCOC)c1c(-c2ccc(F)cc2F)c(Cl)nc2nc(C)nn12 [compound 128]
12,3.06,Cc1nc2nc(Cl)c(-c3c(F)cc(F)cc3F)c(N(N)CC(C)C)n2n1 [compound 129]
13,3.12,Cc1nc2nc(Cl)c(-c3c(F)cccc3Cl)c(N(N)CC(C)C)n2n1 [compound 130]
14,3.31,Cc1nc2nc(Cl)c(-c3ccc(F)c(Cl)c3)c(N(N)CC(C)C)n2n1 [compound 131]
15,3.01,Cc1nc2nc(Cl)c(-c3c(F)cccc3Cl)c(NC(C)C(F)(F)F)n2n1 (centres unmarked) [compound 132]
16,3.9,C=C(C)CN(CC)c1c(-c2ccccc2Cl)c(Cl)nc2nc(C)nn12 [compound 133]
17,3.37,Cc1nc2nc(Cl)c(-c3c(F)cc(F)cc3F)c(NC(C)C(C)C)n2n1 (centres unmarked) [compound 134]
18,2.88,Cc1nc2nc(Cl)c(-c3c(F)cccc3F)c(NOCC(C)C)n2n1 [compound 135]
19,2.22,CCONc1c(-c2c(F)cccc2F)c(Cl)nc2nc(C)nn12 [compound 136]
20,3.21,Cc1nc2nc(Cl)c(-c3c(F)cccc3F)c(NOCc3cccc(Cl)c3)n2n1 [compound 137]
21,3.23,Cc1nc2nc(Cl)c(-c3c(F)cccc3F)c(NOCc3ccc(Cl)cc3)n2n1 [compound 138]
22,2.78,CCC(C)ONc1c(-c2c(F)cccc2F)c(Cl)nc2nc(C)nn12 (centres unmarked) [compound 139]
23,2.38,C=CCONc1c(-c2c(F)cccc2F)c(Cl)nc2nc(C)nn12 [compound 140]

row,logP,Compound
1,2.68,Cc1nc2nc(Cl)c(-c3c(F)cccc3F)c(NOC(C)(C)C)n2n1 [compound 141]
2,2.54,Cc1nc2nc(Cl)c(-c3c(F)cccc3F)c(NOC3CCCCO3)n2n1 (centres unmarked) [compound 142]
3,2.54,CON(C)c1c(-c2c(F)cccc2F)c(Cl)nc2nc(C)nn12 [compound 143]
4,2.46,Cc1nc2nc(Cl)c(-c3c(F)cccc3F)c(NOC(C)C)n2n1 [compound 144]
5,3.14,Cc1nc2nc(Cl)c(-c3c(F)cc(F)cc3F)c(NCC(C)C)n2n1 [compound 145]
6,3.5,Cc1nc2nc(Cl)c(-c3c(F)cc(F)cc3F)c(NCC(C)(C)C)n2n1 [compound 146]
7,3.1,CCC(C)Nc1c(-c2c(F)cc(F)cc2F)c(Cl)nc2nc(C)nn12 (centres unmarked) [compound 147]
8,1.5,Cc1nc2nc(Cl)c(-c3c(F)cc(F)cc3F)c(N(C)CCN(C)C)n2n1 [compound 148]
9,2.77,C#CCN(C)c1c(-c2c(F)cc(F)cc2F)c(Cl)nc2nc(C)nn12 [compound 149]
10,2.8,CCOC(=O)CN(C)c1c(-c2c(F)cc(F)cc2F)c(Cl)nc2nc(C)nn12 [compound 150]
11,2.67,Cc1nc2nc(Cl)c(-c3c(F)cc(F)cc3F)c(N(C)CC3OCCO3)n2n1 [compound 151]
12,3.18,C=CCN(C)c1c(-c2c(F)cc(F)cc2F)c(Cl)nc2nc(C)nn12 [compound 152]
13,3.22,Cc1nc2nc(Cl)c(-c3c(F)cc(F)cc3F)c(N(C)Cc3ccco3)n2n1 [compound 153]
14,3.63,Cc1nc2nc(Cl)c(-c3c(F)cc(F)cc3F)c(N(C)CC(C)C)n2n1 [compound 154]
15,3.55,C=C(C)CN(C)c1c(-c2c(F)cc(F)cc2F)c(Cl)nc2nc(C)nn12 [compound 155]
16,1.59,CCN(CCN(C)C)c1c(-c2c(F)cc(F)cc2F)c(Cl)nc2nc(C)nn12 [compound 156]
17,3.5,C=CCN(CC)c1c(-c2c(F)cc(F)cc2F)c(Cl)nc2nc(C)nn12 [compound 157]
18,3.55,CCN(Cc1ccco1)c1c(-c2c(F)cc(F)cc2F)c(Cl)nc2nc(C)nn12 [compound 158]
19,3.26,CCN(CC1CCCO1)c1c(-c2c(F)cc(F)cc2F)c(Cl)nc2nc(C)nn12 (centres unmarked) [compound 159]
20,3.14,CCOC(=O)CN(CC)c1c(-c2c(F)cc(F)cc2F)c(Cl)nc2nc(C)nn12 [compound 160]
21,4.08,CCCCN(CC)c1c(-c2c(F)cc(F)cc2F)c(Cl)nc2nc(C)nn12 [compound 161]
22,4.08,CCCN(CC1CC1)c1c(-c2c(F)cc(F)cc2F)c(Cl)nc2nc(C)nn12 [compound 162]
23,3.68,CCCN(CC1CCCO1)c1c(-c2c(F)cc(F)cc2F)c(Cl)nc2nc(C)nn12 (centres unmarked) [compound 163]

# Continued, molecule first:
row,Compound,logP
1,CCc1nc2nc(Cl)c(-c3c(F)cc(F)cc3F)c(NC3CC3)n2n1 [compound 79],2.85
2,CCc1nc2nc(Cl)c(-c3c(F)cc(F)cc3F)c(N3CCSCC3)n2n1 [compound 80],3.53
3,CCc1nc2nc(Cl)c(-c3c(F)cc(F)cc3F)c(NCC3CC3)n2n1 [compound 81],3.23
4,Cc1nc2nc(Cl)c(-c3ccc(F)c(Cl)c3)c(NC(C)C)n2n1 [compound 82],3.01
5,Cc1nc2nc(Cl)c(-c3c(F)cc(F)cc3F)c(N3CC=CCC3)n2n1 [compound 83],3.2
6,CC(C)NNc1c(-c2c(F)cc(F)cc2F)c(Cl)nc2nc(C(F)(F)F)nn12 [compound 84],3.68
7,CC1=CCCN(c2c(-c3c(F)cc(F)cc3F)c(Cl)nc3nc(C)nn23)C1 [compound 85],3.57
8,Cc1nc2nc(Cl)c(-c3c(F)cc(F)cc3F)c(N(C)C)n2n1 [compound 86],2.49
9,CCNc1c(-c2c(F)cc(F)cc2F)c(Cl)nc2nc(C)nn12 [compound 87],2.44
10,Cc1nc2nc(Cl)c(-c3c(F)cc(F)cc3F)c(NC(C)(C)C(F)(F)F)n2n1 [compound 88],3.7
11,Cc1nc2nc(Cl)c(-c3c(F)cc(F)cc3F)c(N3CCOCC3)n2n1 [compound 89],2.43
12,CNc1c(-c2c(F)cc(F)cc2F)c(Cl)nc2nc(C)nn12 [compound 90],2.12
13,CCNc1c(-c2c(F)cc(F)cc2F)c(Cl)nc2nc(CC)nn12 [compound 91],2.78
14,CCc1nc2nc(Cl)c(-c3c(F)cc(F)cc3F)c(N3CCOCC3)n2n1 [compound 92],2.8
15,CCc1nc2nc(Cl)c(-c3c(F)cc(F)cc3F)c(NC)n2n1 [compound 93],2.44
16,CCc1nc2nc(Cl)c(-c3c(F)cc(F)cc3F)c(N3CCCCC3C(F)(F)F)n2n1 (centres unmarked) [compound 94],4.27
17,C=C(C)CN(CC)c1c(-c2c(F)cc(F)cc2F)c(Cl)nc2nc(C(F)(F)F)nn12 [compound 95],4.69
18,C=C(C)CN(CC)c1c(-c2ccc(F)cc2F)c(Cl)nc2nc(C)nn12 [compound 96],3.73
19,Cc1nc2nc(Cl)c(-c3ccc(F)c(Cl)c3)c(NC(C)C(F)(F)F)n2n1 (centres unmarked) [compound 97],3.32

row,Compound,logP
1,Cc1nc2nc(Cl)c(-c3c(F)cc(F)cc3F)c(N3CCC(O)C3)n2n1 (centres unmarked) [compound 98],1.85
2,Cc1nc2nc(Cl)c(-c3c(F)cc(F)cc3F)c(N3CCCC(O)C3)n2n1 (centres unmarked) [compound 99],2.15
3,CN(C)c1c(-c2c(F)cc(F)cc2F)c(Cl)nc2nc(C(F)(F)F)nn12 [compound 100],3.6
4,CC1CN(c2c(-c3c(F)cc(F)cc3F)c(Cl)nc3nc(C(F)(F)F)nn23)CC(C)O1 (centres unmarked) [compound 101],4.18
5,CCNc1c(-c2c(F)cc(F)cc2F)c(Cl)nc2nc(C(F)(F)F)nn12 [compound 102],3.5
6,Fc1cc(F)c(-c2c(Cl)nc3nc(C(F)(F)F)nn3c2N2CCCC2)c(F)c1 [compound 103],3.92
7,Fc1cc(F)c(-c2c(Cl)nc3nc(C(F)(F)F)nn3c2N2CCCCC2)c(F)c1 [compound 104],4.46
8,CC(C)(Nc1c(-c2c(F)cc(F)cc2F)c(Cl)nc2nc(C(F)(F)F)nn12)C(F)(F)F [compound 105],4.37
9,CCCNc1c(-c2c(F)cc(F)cc2F)c(Cl)nc2nc(C(F)(F)F)nn12 [compound 106],3.82
10,COCCNc1c(-c2c(F)cc(F)cc2F)c(Cl)nc2nc(C(F)(F)F)nn12 [compound 107],3.38
11,CNc1c(-c2c(F)cc(F)cc2F)c(Cl)nc2nc(C(F)(F)F)nn12 [compound 108],3.17
12,Fc1cc(F)c(-c2c(Cl)nc3nc(C(F)(F)F)nn3c2N2CCCCC2C(F)(F)F)c(F)c1 (centres unmarked) [compound 109],4.76
13,Fc1cc(F)c(-c2c(Cl)nc3nc(C(F)(F)F)nn3c2N2CCSCC2)c(F)c1 [compound 110],4.09
14,Fc1cc(F)c(-c2c(Cl)nc3nc(C(F)(F)F)nn3c2NCC2CC2)c(F)c1 [compound 111],3.89
15,Cc1nc2nc(Cl)c(-c3c(F)cc(F)cc3F)c(N3CCSC3)n2n1 [compound 112],2.84
16,Cc1nc2nc(Cl)c(-c3c(F)cc(F)cc3F)c(NC(C)C(F)(F)F)n2n1 (centres unmarked) [compound 113],3.03
17,C=C(C)CN(CC)c1c(-c2c(F)cccc2Cl)c(Cl)nc2nc(C)nn12 [compound 114],3.91
18,COC(=O)C(CO)Nc1c(-c2c(F)cc(F)cc2F)c(Cl)nc2nc(C)nn12 (centres unmarked) [compound 115],1.93

# Reference: US7186831B2, “5-halo-2-alkyl[1,2,4]triazolo[1,5-a]pyrimidin-7-amines” (priority 2001, dated 2007)
